Results taken from publication PMC11474028, “Lipopeptide antibiotics disrupt interactions of undecaprenyl phosphate with UptA” (Proceedings of the National Academy of Sciences of the …, 2024).

Test system: UptA Q64A
Experiment: Native MS of C55-P binding to UptA mutant Q64A
Parameters: species or system Bacillus subtilis
Settings: 5 µM protein, 10 µM C55-P, pH 8.02, 0.05% LDAO, 200 mM ammonium acetate, collisional activation 100 V; three biological replicates
Source text: Conserved arginine residues in the putative membrane reentrant loops of E. coli DedA proteins YqjA (R130) and YghB (R136) are important for the cellular role of these proteins ([36]). […] How these residues impact substrate interactions, however, is not known. Based on the model structure of UptA predicted by AlphaFold, the R112 residue should engage Q64 while R118 is able to form hydrogen bonds with E32, H119, and W146 to potentially stabilize the membrane reentrant loops (Fig. 3A). To test for the impact of these residues on C55-P binding, we generated the E32A, Q64A, R112A, R118A, H119A, and W146A UptA single mutants. After purification of the proteins, using the same protocol as the wild type (WT) (Materials and Methods and SI Appendix, Fig. S5), we equilibrated aliquots of each protein variant (5 µM) with C55-P (10 µM) and recorded spectra using the same instrument settings. […] We additionally generated a double mutant R112E/R118E in which the polarity of both native arginine residues in the wild type are reversed.
Expression and purification of UptA
Plasmids were used to transform chemically competent E. coli C43(DE3) cells (Lucigen) and selected on LB/Agar containing 100 μg/ml ampicillin at 37 °C. Single colonies were used to inoculate 60 mL LB containing 100 μg/ml ampicillin and were grown at 37 °C overnight for 16 h. […]

With `CC(C)=CCC/C(C)=C/CC/C(C)=C/CC/C(C)=C\CC/C(C)=C\CC/C(C)=C\CC/C(C)=C\CC/C(C)=C\CC/C(C)=C\CC/C(C)=C\CC/C(C)=C\COP(=O)(O)O` [C55-P, undecaprenyl phosphate] the “reduction in C55-P binding intensity compared to wild type, Q64A (in words)” value was “modest reduction”.
